Like-named read-outs stand apart in the source and are kept apart here.
Tested on: PKC mediated IL-2 production in human primary T cells
Test: IL-2 ELISA, human primary T cell, anti CD3+CD28+ (whole cell functional assay for PKC mediated IL-2 production)
Format: cell-based
Protocol: Human primary T cells were prepared as follows. Fresh PBMC's from All Cells (Cat # PB002) were re-suspended in RPMI (RPMI-1640 with L-Glutamine; Mediatech, Inc., Herndon Va., cat. #10-040-CM) with 10% FBS and seeded into flasks and incubated at 37° C. for 2 hours to allow the monocytes to adhere. The non-adherent cells were then centrifuged and re-suspended in RPMI medium containing 40 U/ml IL2 and seeded into a flask pre-coated with 1 μg/ml aCD3 and 5 ug/ml aCD28 (Anti-Human CD3, BD Pharmingen Catalog #555336, Anti-Human CD28, Beckman Coulter Catalog #IM1376). The cells were stimulated for 3-4 days, then transferred to a fresh flask and maintained in RPMI (RPMI-1640 with L-Glutamine; Mediatech, Inc., Herndon Va., cat. #10-040-CM) with 10% FBS and 40 U/ml IL-2.
Human primary T cells (100,000 cells per well) were pre-incubated with or without test compound in RPMI-1640 with L-Glutamine and 10% FBS for 1 hour at 37° C. Cells were then stimulated by transferring them to round-bottom 96-well plates pre-coated with 1 μg/ml aCD3 and 5 μg/ml aCD28. For counter assay, cells were instead stimulated by adding 8× stock solutions of PMA and ionomycin in RPMI-1640 with L-Glutamine and 10% FBS (for final concentrations of 0.5 ng/ml PMA and 0.1 μM ionomycin, both from Calbiochem). Cells were incubated at 37° C. for 24 hours before 100 μL supernatants were harvested for quantification of IL-2 by ELISA using Human IL-2 Duoset ELISA Kit from R and D Systems, Cat. # DY202E.
Compounds 1-156 were tested in a whole cell functional assay for PKC mediated IL-2 production as follows. Human primary T cell isolation and culture: Human primary T cells were prepared as follows. Whole blood was obtained from a healthy volunteer, mixed 1:1 with PBS, layered on to Ficoll Hypaque (Amersham Pharmacia Biotech, Piscataway, N.J., Catalog #17-1440-03) in 2:1 blood/PBS:ficoll ratio and centrifuged for 30 minutes at 4° C. at 1750 rpm. The cells at the serum: ficoll interface were recovered and washed twice with 5 volumes of PBS. These freshly isolated human peripheral blood mononuclear cells were cultured in Yssel's medium containing 40 U/ml IL2 in a flask pre-coated with 1 μg/ml aCD3 and 5 μg/ml aCD28 (Anti-Human CD3, BD Pharmingen Catalog #555336, Anti-Human CD28, Beckman Coulter Catalog #IM1376). The cells were stimulated for 3-4 days, then transferred to a fresh flask and maintained in RPMI (RPMI-1640 with L-Glutamine; Mediatech, Inc., Herndon Va., cat. #10-040-CM) with 10% FBS and 40 U/ml IL-2. The primary T-cells were then washed twice with PBS to remove the IL-2.
Primary T cell stimulation and IL2 ELISA: Human primary T cells (100,000 cells per well) were pre-incubated with or without test compound in Yssel's medium for 1 hour at 37° C. Cells were then stimulated by transferring them to round-bottom 96-well plates pre-coated with 1 μg/ml aCD3 and 5 μg/ml αCD28. For counter assay, cells were instead stimulated by adding 8× stock solutions of PMA and ionomycin in Yssels (for final concentrations of 0.5 ng/ml PMA and 0.1 uM ionomycin, both from Calbiochem). Cells were incubated at 37° C. for 24 hours before 100 μL supernatants were harvested for quantification of IL-2 by ELISA using Human IL-2 Duoset ELISA Kit from R and D Systems, Cat. # DY202E.

[1] = 24 h, human primary T cells stimulated with anti-CD3 + anti-CD28, IL-2 by ELISA, read-out: IC50 for blocking IL-2 production
[2] = human primary T cells stimulated with anti-CD3 + anti-CD28, 24 h, IL-2 by ELISA, 8 pt, read-out: IL2 ELISA, Human primary T cell, anti-CD3 + CD28, 8 pt (IC50)

Row | Compound | IC50 [1] | IC50 [2]
1 | COc1cc(Nc2ncc(N(C)C)c(NC[C@@H]3CCCN4CCCC[C@H]34)n2)cc(OC)c1 [Compound 96, N4-(((1S,9aR)-octahydro-1H-quinolizin-1-yl)methyl)-N2-(3,5-dimethoxyphenyl)-N5,N5-dimethylpyrimidine-2,4,5-triamine] | < 30 µM | 4.98 µM
2 | Cn1nnn(-c2cc(Nc3ncc(Cl)c(NC[C@@H]4CCCN5CCCC[C@H]45)n3)c(F)cc2O)c1=O [Compound 146, 1-(5-((5-chloro-4-((((1S,9aR)-octahydro-2H-quinolizin-1-yl)methyl)amino)pyrimidin-2-yl)amino)-4-fluoro-2-hydroxyphenyl)-4-methyl-1,4-dihydro-5H-tetrazol-5-one] | < 30 µM | 1.98 µM
3 | Cc1nnnn1-c1cc(Nc2nccc(NC[C@@H]3CCCN4CCCC[C@H]34)n2)ccc1F [Compound 49, N2-(4-fluoro-3-(5-methyl-1H-tetrazol-1-yl)phenyl)-N4-(((1S,9aR)-octahydro-1H-quinolizin-1-yl)methyl)pyrimidine-2,4-diamine] | < 30 µM | 0.897 µM
4 | N#Cc1cnc(Nc2cc(-n3nnnc3C3CC3)ccc2F)nc1NC[C@@H]1CCCN2CCCC[C@H]12 [Compound 123, 4-(((1S,9aR)-octahydro-1H-quinolizin-1-yl)methylamino)-2-(5-(5-cyclopropyl-1H-tetrazol-1-yl)-2-fluorophenylamino)pyrimidine-5-carbonitrile] | < 30 µM | 0.0418 µM
5 | N#Cc1cc(Nc2nccc(NC[C@@H]3CCCN4CCCC[C@H]34)n2)c(F)cc1C1CC1 [Compound 56, 5-(4-(((1S,9aR)-octahydro-1H-quinolizin-1-yl)methylamino)pyrimidin-2-ylamino)-2-cyclopropyl-4-fluorobenzonitrile] | < 30 µM | 3.8 µM
6 | Cn1nnn(-c2cc(Nc3ncc(C#N)c(NC[C@@H]4CCCN5CCCC[C@H]45)n3)c(F)cc2OCC2COCCO2)c1=O (stereo partly drawn) [Compound 131, 2-((4-((1,4-dioxan-2-yl)methoxy)-2-fluoro-5-(4-methyl-5-oxo-4,5-dihydro-1H-tetrazol-1-yl)phenyl)amino)-4-((((1S,9aR)-octahydro-2H-quinolizin-1-yl)methyl)amino)pyrimidine-5-carbonitrile] | < 30 µM | 1.3 µM
7 | O=c1[nH]c2cc(Nc3ncc(Cl)c(NC[C@@H]4CCCN5CCCC[C@H]45)n3)ccc2o1 [Compound 44, 5-(4-(((1S,9aR)-octahydro-1H-quinolizin-1-yl)methylamino)-5-chloropyrimidin-2-ylamino)benzo[d]oxazol-2(3H)-one] | < 30 µM | 1.18 µM
8 | CC1(C)Oc2cc(Nc3ncc(F)c(NC[C@@H]4CCCN5CCCC[C@H]45)n3)ccc2N(CCCF)C1=O [Compound 25, 7-(4-(((1S,9aR)-octahydro-1H-quinolizin-1-yl)methylamino)-5-fluoropyrimidin-2-ylamino)-4-(3-fluoropropyl)-2,2-dimethyl-2H-benzo[b][1,4]oxazin-3(4H)-one] | < 30 µM | 0.853 µM
9 | Cn1nnn(-c2cc(Nc3ncc(C#N)c(NC[C@@H]4CCCN5CCCC[C@H]45)n3)c(F)cc2OCC(O)CO)c1=O (stereo partly drawn) [Compound 132, 2-((4-(2,3-dihydroxypropoxy)-2-fluoro-5-(4-methyl-5-oxo-4,5-dihydro-1H-tetrazol-1-yl)phenyl)amino)-4-((((1S,9aR)-octahydro-2H-quinolizin-1-yl)methyl)amino)pyrimidine-5-carbonitrile] | < 30 µM | 1.24 µM
10 | N#Cc1cc(Nc2ncc(Cl)c(NC[C@@H]3CCCN4CCCC[C@H]34)n2)c(F)cc1C1CC1 [Compound 42, 5-(4-(((1S,9aR)-octahydro-1H-quinolizin-1-yl)methylamino)-5-chloropyrimidin-2-ylamino)-2-cyclopropyl-4-fluorobenzonitrile] | < 30 µM | 0.348 µM
11 | Cc1ccc(Nc2ncc(N(C)C)c(NC[C@@H]3CCCN4CCCC[C@H]34)n2)cc1-n1cnnn1 [Compound 86, N4-(((1S,9aR)-octahydro-1H-quinolizin-1-yl)methyl)-N5,N5-dimethyl-N2-(4-methyl-3-(1H-tetrazol-1-yl)phenyl)pyrimidine-2,4,5-triamine] | < 30 µM | 11 µM
12 | N#Cc1cccc(Nc2ncc(Cl)c(NC[C@@H]3CCCN4CCCC[C@H]34)n2)c1 [Compound 39, 3-(4-(((1S,9aR)-octahydro-1H-quinolizin-1-yl)methylamino)-5-chloropyrimidin-2-ylamino)benzonitrile] | < 30 µM | 0.418 µM
13 | Cc1cnc(Nc2cc(-n3nnnc3C)ccc2F)nc1NC[C@@H]1CCCN2CCCC[C@H]12 [Compound 63, N2-(2-fluoro-5-(5-methyl-1H-tetrazol-1-yl)phenyl)-N4-(((1S,9aR)-octahydro-1H-quinolizin-1-yl)methyl)-5-methylpyrimidine-2,4-diamine] | < 30 µM | 1.16 µM
14 | Cc1nnnn1-c1cc(Nc2ncc(Cl)c(NC[C@@H]3CCCN4CCCC[C@H]34)n2)ccc1F [Compound 35, 5-chloro-N2-(4-fluoro-3-(5-methyl-1H-tetrazol-1-yl)phenyl)-N4-(((1S,9aR)-octahydro-1H-quinolizin-1-yl)methyl)pyrimidine-2,4-diamine] | < 30 µM | 0.0542 µM
15 | N#Cc1cccc(Nc2ncc(C(F)(F)F)c(NC[C@@H]3CCCN4CCCC[C@H]34)n2)c1 [Compound 107, 3-(4-(((1S,9aR)-octahydro-1H-quinolizin-1-yl)methylamino)-5-(trifluoromethyl)pyrimidin-2-ylamino)benzonitrile] | < 30 µM | 17.1 µM
16 | CC1(C)Oc2ccc(Nc3ncc(F)c(NC[C@@H]4CCCN5CCCC[C@H]45)n3)cc2-n2nnnc21 [Compound 98, N2-(4,4-dimethyl-4H-5-oxa-1,2,3,9b-tetraaza-cyclopenta[a]naphthalen-8-yl)-5-fluoro-N4-(((1S,9aR)-octahydro-1H-quinolizin-1-yl)methyl)-pyrimidine-2,4-diamine] | < 30 µM | 0.0774 µM
17 | Cn1nnn(-c2cc(Nc3nccc(NC[C@@H]4CCCN5CCCC[C@H]45)n3)c(F)cc2C2CC2)c1=O [Compound 48, 1-(5-(4-(((1S,9aR)-octahydro-1H-quinolizin-1-yl)methylamino)pyrimidin-2-ylamino)-2-cyclopropyl-4-fluorophenyl)-4-methyl-1H-tetrazol-5(4H)-one] | < 30 µM | 3.81 µM
18 | Cc1cnc(Nc2cc(C#N)c(C3CC3)cc2F)nc1NC[C@@H]1CCCN2CCCC[C@H]12 [Compound 69, 5-(4-(((1S,9aR)-octahydro-1H-quinolizin-1-yl)methylamino)-5-methylpyrimidin-2-ylamino)-2-cyclopropyl-4-fluorobenzonitrile] | < 30 µM | 0.265 µM
19 | Cc1nnnn1-c1ccc(F)c(Nc2ncc(Cl)c(NC[C@@H]3CCCN4CCCC[C@H]34)n2)c1 [Compound 36, 5-chloro-N2-(2-fluoro-5-(5-methyl-1H-tetrazol-1-yl)phenyl)-N4-(((1S,9aR)-octahydro-1H-quinolizin-1-yl)methyl)pyrimidine-2,4-diamine] | < 30 µM | 0.112 µM
20 | OCCOc1ccc(Nc2nccc(NC[C@@H]3CCCN4CCCC[C@H]34)n2)cc1-n1cnnn1 [Compound 141, 2-(4-((4-((((1S,9aR)-octahydro-2H-quinolizin-1-yl)methyl)amino)pyrimidin-2-yl)amino)-2-(1H-tetrazol-1-yl)phenoxy)ethan-1-ol] | < 30 µM | 3.55 µM

Source: patent US9913843B2, “Protein kinase C inhibitors and uses thereof” (Rigel Pharmaceuticals, Inc., priority 2012, dated 2018)
